# Experimental data from US20200155500A1, “COMPOSITION FOR PREVENTING AND TREATING PANCREATITIS CONTAINING NAPHTHOQUINONE-BASED COMPOUND AS ACTIVE INGREDIENT” (NADIANBIO Ltd., priority 2015, published 2020).
# How the values were obtained:
# [1] = tested on: caerulein mediated pancreatitis; test: Ratio of pancreas weight to body weight, caerulein mediated pancreatitis model; assay type: in vivo; conditions: C57BL/6 mice, oral 10, 20, 40 mg/kg one day before caerulein (50 μg/kg i.p. x6); vs caerulein treated group
# Method: In this invention, C57BL/6 mice at the body weight of about 22±2 g were used. All the mice were raised in a sterile animal laboratory with constant temperature (22˜26[…]) and humidity (55˜60%). The mice were adapted for 1 week while feeding with normal solid feed (Samtaco Korea) and water. All the experiments were performed according to the guide for the care and use of laboratory animals set by Wonkwang University. […] When pancreatitis is developed, the weight of pancreas is known to be increased because of edema. Thus, blood was extracted from all the animals finished with the experiment and then the ratio of the pancreas weight to the body weight was measured. […] After blood was extracted, the pancreas was cut out and the weight of the pancreas to the body weight was measured by the pancreas weight (wet pancreas weight)/body weight (wet body weight) formula of Grady method.
# IL-1β [2] = test: Expression of IL-1β in pancreas by real-time PCR, caerulein mediated pancreatitis model; assay type: in vivo; conditions: C57BL/6 mice, oral treatment one day before caerulein, vs caerulein treated group
# Method: (§1) In this invention, C57BL/6 mice at the body weight of about 22±2 g were used. All the mice were raised in a sterile animal laboratory with constant temperature (22˜26[…]) and humidity (55˜60%). The mice were adapted for 1 week while feeding with normal solid feed (Samtaco Korea) and water. All the experiments were performed according to the guide for the care and use of laboratory animals set by Wonkwang University.
# (§2) Serum was obtained from the animal model and then the level of serum IL-1β was measured by using mouse IL-1β ELISA kit (BD, USA). First, nasal lavage fluid or diluted serum was loaded in the 96-well plate coated with the mouse IL-1β specific antibody, followed by reaction at room temperature for 2 hours. After washing the plate, biotin conjugate was added thereto, followed by reaction at room temperature for 1 hour. After washing the plate, streptavidin-HRP working solution was added thereto, followed by reaction. After washing the plate again, stabilized chromogen was added thereto, followed by reaction. Then, OD450 was measured. In addition, the expression of IL-1β in pancreas was confirmed by real-time PCR in each pancreas tissue. To extract total RNA, 1 mL of TRIzol (Invitrogen, USA) was added to 20 mg of each pancreas tissue, which stood on ice for 5 minutes to lyse cells. […] The RNA was quantified by using Nanodrop 2000 (Thermo, USA). […]
# IL-1β [3] = test: Serum IL-1β level by ELISA, caerulein mediated pancreatitis model; assay type: in vivo; conditions: C57BL/6 mice, oral 10, 20, 40 mg/kg one day before caerulein, dose-dependently, vs caerulein treated group
# Method: as §1, §2
# MCP-1 = test: Expression of MCP-1 in pancreas by RT-PCR, caerulein mediated pancreatitis model; assay type: in vivo; conditions: C57BL/6 mice, oral 10, 20, 40 mg/kg one day before caerulein, vs caerulein treated group
# Method: as §1
# lipase [4] = test: Serum lipase activity, caerulein mediated pancreatitis model; assay type: in vivo; conditions: C57BL/6 mice, oral 10, 20, 40 mg/kg one day before caerulein; vs caerulein treated group
# Method: as §1
# (§3) Serum was obtained and then OD595 and OD412 were measured by using amylase activity analysis kit (DAMY-100; BioAssay Systems, USA) and lipase activity analysis kit (DLPS-100; BioAssay Systems, USA) to investigate the activities of amylase and lipase.
# [5] = tested on: caerulein mediated pancreatitis; test: Morphological changes of pancreas tissue (hematoxylin-eosin, histological scores), preventive treatment; assay type: in vivo; conditions: C57/BL6 mouse, oral 10, 20, 40 mg/kg one day before caerulein; dose-dependently
# Method: as §1
# Pancreas tissues were separated, fixed in 10% formalin for 24 hours at 4[…], demineralized with 10% ethylenediaminetetra-acetic acid (EDTA, pH 7.4) solution, washed, dehydrated, embedded in paraffin and cut into 5 μm sections. The sections were stained with hematoxylin-eosin, followed by observation under optical microscope.
# amylase [6] = test: Serum amylase activity, caerulein mediated pancreatitis model; assay type: in vivo; conditions: C57BL/6 mice, oral 10, 20, 40 mg/kg one day before caerulein; vs caerulein treated group
# Method: as §1, §3
# [7] = tested on: lung damage induced by caerulein; test: Lung damage induced by pancreatitis, C57/BL6 mouse; assay type: in vivo; conditions: cotreatment 10, 20, 40 mg/kg
# NQO-1 knock out mouse [8] = test: Ratio of pancreas weight to body weight in NQO-1 knock out mouse; assay type: in vivo; conditions: NQO1 knock out mouse; caerulein treated group vs β-lapachone cotreated group
# Method: (§4) To confirm whether or not the protective effect of β-lapachone on pancreatitis was via the activation pathway of NQO-1 enzyme, the present inventors investigated the weight of pancreas, the activities of serum amylase and lipase, and the concentration of serum IL-1β in NQO-1 knock out mouse.
# (§5) Then, the ratio of the pancreas weight to the body weight was calculated by the same manner as described in Experimental Example 2. The activities of serum amylase and lipase were measured using a kit by the same manner as described in Experimental Example 3.
# lipase [9] = test: Serum lipase activity in NQO-1 knock out mouse; assay type: in vivo; conditions: NQO1 knock out mouse; caerulein treated group vs β-lapachone cotreated group
# Method: as §4, §5
# amylase [10] = test: Serum amylase activity in NQO-1 knock out mouse; assay type: in vivo; conditions: NQO1 knock out mouse; caerulein treated group vs β-lapachone cotreated group
# Method: as §4, §5
# NQO-1 knock out mouse [11] = test: Lung damage induced by pancreatitis, NQO-1 knock out mouse; assay type: in vivo; conditions: cotreatment with β-lapachone
# IL-1β [12] = test: Serum IL-1β concentration in NQO-1 knock out mouse; assay type: in vivo; conditions: NQO1 knock out mouse; caerulein treated group vs β-lapachone cotreated group
# Method: as §4, §5
# [13] = tested on: pancreatitis induced by caerulein; test: Therapeutic effect on caerulein-induced pancreatitis, pancreas tissue morphology; assay type: in vivo, C57BL/6 mice; conditions: intravenous injection six hours after the final caerulein administration; 10, 20, 40 mg/kg
# Method: as §1
# NQO-1 knock out mouse [14] = test: Morphological changes of pancreas tissue in NQO1 knock out mouse; assay type: in vivo; conditions: 40 mg/kg plus caerulein, vs caerulein treated group
# Text: β-lapachone is known as a co-substrate of NQO-1 (NAD(P)H: quinone oxidoreductase-1). So, in order to confirm whether or not the pancreas protection effect of β-lapachone was via the activation pathway of NQO-1, the morphological changes of pancreas were investigated in NQO-1 knock out mouse.
# Then, the pancreas tissues were stained with hematoxylin-eosin by the same manner as described in Experimental Example 5, followed by observation under optical microscope.
smiles,measurement,setting,value
CC1OC2=C(C(=O)C(=O)c3ccccc32)C1(C)C (centres unmarked) [dunnione],ratio of pancreas weight/body weight,[1],significantly reduced dose-dependently
same,expression of IL-1β in pancreas,IL-1β [2],significantly reduced
same,serum IL-1β level,IL-1β [3],significantly reduced
same,expression of MCP-1 in pancreas,MCP-1,reduced dose-dependently
same,lipase activity in serum,lipase [4],significantly reduced dose-dependently
same,"edema, inflammation, and cell necrosis of pancreas tissues induced by caerulein (histological scores)",[5],all inhibited
same,amylase activity in serum,amylase [6],significantly reduced dose-dependently
same,lung damage induced by caerulein,[7],significantly inhibited
CC1(C)CCC2=C(O1)c1ccccc1C(=O)C2=O [β-lapachone],ratio of pancreas weight/body weight,[1],significantly reduced dose-dependently
same,expression of IL-1β in pancreas,IL-1β [2],significantly reduced
same,serum IL-1β level,IL-1β [3],significantly reduced
same,ratio of pancreas weight/body weight,NQO-1 knock out mouse [8],not significantly different
same,activity of serum lipase,lipase [9],not significantly different
same,expression of MCP-1 in pancreas,MCP-1,reduced dose-dependently
same,activity of serum amylase,amylase [10],not significantly different
same,lipase activity in serum,lipase [4],significantly reduced dose-dependently
same,lung damage induced by caerulein,NQO-1 knock out mouse [11],not inhibited
same,concentration of serum IL-1β,IL-1β [12],not much different
same,"edema, inflammation, and cell necrosis of pancreas tissues induced by caerulein (histological scores)",[5],all inhibited
same,"edema, inflammation, and cell necrosis of pancreas tissues induced by caerulein (histological scores)",[13],all reduced
same,"edema, inflammation, and cell necrosis of pancreas tissues",NQO-1 knock out mouse [14],not reduced
same,amylase activity in serum,amylase [6],significantly reduced dose-dependently
same,lung damage induced by caerulein,[7],inhibited
